Test results from patent US8222487B2, “Application of ERF genes from Bupleurum kaoi” (National Tsing Hua University, priority 2009, dated 2012).

Columns and labels:
Psudomonas syringe = experiment: Inhibition of bacteria in BkERF transformed B. kaoi cells; format: cell-based; settings: 6 days after infection, transformed B. kaoi cells overexpressing the gene
Excerpt: (§1) The BkERF1, BkERF2.1, and BkERF2.2 genes are SEQ ID NO. 3, SEQ ID NO. 1 and SEQ ID NO. 2 respectively. The coding region of BkERFs was cloned into the multiple cloning site of the binary vector under the CaMV 35S promoter and the nopaline synthase termination sequence. The resulting vector was introduced into the Agrobacterium tumefaciens which was introduced into the cells of B. kaoi. The B. kaoi cells overexpressed BkERFs genes were observed using Western blot.
(§2) Bacteria suspension of a concentration about 10^8 cfu/ml was made from bacteria cultured 1-2 days with culture medium, and inoculated to 0.2 g BkERF transformed calli then grown in a 25° C. incubator. After six days, the calli was homogenized in 10 mM magnesium sulfate. Serial dilution of the bacteria was prepared and spread on nutrient agar plate containing 50 mg/L rifampicin. The plates were put in a 28° C. incubator for two days and then the numbers of bacteria were calculated.

Staphylococcus aureus = experiment: as above; format: cell-based; settings: 6 days after infection, transformed B. kaoi cells overexpressing the gene
Excerpt: as §1, §2

Substance	Growth of bacteria in the transformed cells (bacterial numbers) (Psudomonas syringe)	Growth of bacteria in the transformed cells (bacterial numbers) (Staphylococcus aureus)
ERF1: B. kaoi ethylene response factor gene, ORF of 633 bp encoding 210 amino acids, overexpressed via binary vector	inhibited	inhibited
ERF2.1: B. kaoi ethylene response factor gene, ORF of 693 bp encoding 230 amino acids, overexpressed via binary vector	inhibited	inhibited
ERF2.2: B. kaoi ethylene response factor gene, ORF of 702 bp encoding 233 amino acids, overexpressed via binary vector	inhibited	inhibited
